These are literature values, as cited in patent US20150045434A1, “METHIONINE COMPOUND INTENDED FOR ANIMAL FEED” (ROQUETTE FRERES, priority 2011, published 2015).

For data set [1] the following is noted: at 35° C.

`CSCC[C@H](N)C(=O)O` [methionine]: under “acid function”, the “pKa1 (pKa of the acid function of methionine)” value was 2.2. In addition, the “pKa2 (pKa of the amine function of methionine)” value (amine function) is given as 9.3. Besides, the solubility of methionine entry in data set [1] is “about 70 g/l”.
